The text below walks through data of patent US20140066394A1, “Substituted 6-(Benzylamino) Purine Riboside Derivatives, Use Thereof and Compositions Containing These Derivatives” (Biopatterns, S.R.O, priority 2009, published 2014).

A value given as a limit tells only on which side of the number the result lay.

Experiment [1] relates to promyelocytic HL-60 leukemia. The experiment can be described thus: In vitro cytotoxicity, Calcein AM assay, HL60. The conditions noted are these: Homo sapiens, HL-60, 72 hours. In kind it is cell-based, human. The text has this:
(§1) Low cytotoxicity of the compounds is the major property determining the cosmetic use. One of the parameters used, as the basis for cytotoxicity assays, is the metabolic activity of viable cells. For example, a microtiter assay, which uses the Calcein AM, is now widely used to quantitate cell proliferation and cytotoxicity. For instance, this assay is used in drug screening programs and in chemosensitivity testing. Because only metabolically active cells cleave Calcein AM, these assays detect viable cells exclusively. The quantity of […] Calcein AM corresponds to the number of vital cells in the culture.
(§2) Human T-lymphoblastic leukemia cell line CEM; promyelocytic HL-60 and monocytic U937 leukemias; breast carcinoma cell lines MCF-7, BT549, MDA-MB-231; glioblastoma U87MG cells; cervical carcinoma cells HELA; sarcoma cells U2OS and Saos2; hepatocellular carcinoma HepG2; mouse fibroblasts NIH3T3; mouse immortalized bone marrow macrophages B2.4 and B10A.4; P388D1 and L1210 leukemia; B16 and B16F10 melanomas; human osteosarcoma HOS; human myeloid leukemia K-562; human skin melanoma G-361 were used for routine screening of compounds. The cells were maintained in Nunc/Corning 80 cm^2 plastic tissue culture flasks and cultured in cell culture medium (DMEM with 5 g/l glucose, 2 mM glutamine, 100 U/mL penicillin, 100 μg/mL streptomycin, 10% fetal calf serum and sodium bicarbonate).
(§3) The cell suspensions that were prepared and diluted according to the particular cell type and the expected target cell density (2.500-30.000 cells per well based on cell growth characteristics) were added by pipette ([…]) into 96/well microtiter plates. Inoculates were allowed a pre-incubation period of 24 hours at 37° C. and 5% CO2 for stabilisation. Four-fold dilutions of the intended test concentration were added at time zero in 20 μl aliquots to the microtiter plate wells. Usually, the compound tested was evaluated at six 4-fold dilutions. In routine testing, the highest well concentration was 100 μM, but it can be the matter of change dependent on the agent. All drug concentrations were examined in duplicates. Incubations of cells with the tested compounds lasted for 72 hours at 37° C., in 5% CO2 atmosphere and 100% humidity. At the end of the incubation period, the cells were assayed by using Calcein AM. Ten microliters of the stock solution were pipetted into each well and incubated for 1 hour. Fluorescence (FD) was measured with the Labsystem FIA Reader Fluoroscan Ascent (UK). The tumour cell survival (GI50) was calculated using the following equitation: TCS=(FDdrug exposed well/mean FDeontrol wells)×100%. The GI50 value, the drug concentration lethal to 50% of the tumour cells, was calculated from the obtained dose response curves.
(§4) Zero cytotoxicity of the novel compounds is the basic prerequisite for agricultural and tumor-unrelated applications. The cytoxicity of the novel compounds was tested on a panel of cell lines of different histogenetic and species origin (Table 9). We show herein that equal activities were found in all tumour cell lines tested, however, the non-malignant cells, e.g. NIH3T3 fibroblasts and normal human lymphocytes, were resistant to 2,6-disubstituted purine ribosides induced cytotoxicity. The compounds listed in Tab. 9 can be divided into 2 groups. The first group contains “classical cytokinins” represented by 6-substituted purine ribosides (which are known in the prior art). The second group contains the novel 2,6-disubstituted derivatives of these compounds. […] GI50 for NIH3T3 fibroblasts and normal human lymphocytes was always higher than 100 μM. The novel derivatives show no toxicity to normal and tumour cells in concentrations about 100 μM and thus are more suitable for agricultural applications than “classical cytokinins” (6-substituted purine riboside derivatives).

The subject of experiment [2] is neutrophils. The experiment can be described thus: Neutrophil IL8 release, ELISA. In kind it is cell-based. The conditions noted are these: Homo sapiens, primed neutrophils, ELISA (FIG. 3). As for the experimental part:
Neutrophils were cultured at 2×10^6 cells/ml in RPMI1640 medium containing human serum antibiotics and 20 ng/ml TNFα for 10 minutes prior to addition of a range of concentrations of compound 10. Release of IL8 was monitored after a 4 h period by ELISA. Data are mean of duplicate measurements representative of 5 separate experiments.
(§5) Anti-inflammatory effects against neutrophils were determined by assessing effects of several of the compounds on neutrophil inflammatory activity (superoxide generation, secretion of chemoattractant IL8 and degranulation to release myeloperoxidase). Neutrophils were isolated from human blood to a purity of greater than 95% and were cultured in RPMI1640 medium containing 2% human AB serum, 2 mM L-glutamine and antibiotics (100 U/ml penicillin, […] streptomycin). Neutrophils were primed for 30 minutes with 50 ng/ml GM-CSF prior to treatment with the bacterial stimulant fMLP (100 ng/ml) and measurement of superoxide generation in a lucigenin based assay (see Pongracz J and Lord J M 1998, Biochem. Biophys. Res. Commun. 247, 624-629) and release of IL8 and myeloperoxidase using an ELISA method. The novel compounds were added to the culture at a range of concentrations (0.1-100 μM) 10 minutes prior to addition of fMLP. […]

For experiment [3], the system named is breast carcinoma cell line MCF-7. Description: In vitro cytotoxicity, Calcein AM assay, MCF7. In kind it is cell-based, human. The following applies: Homo sapiens, MCF7, 72 hours.
Description: as §1, §2, §3, §4

For experiment [4], the system named is neutrophils. Description: Neutrophil degranulation, release of myeloperoxidase, ELISA. In kind it is cell-based. The conditions noted are these: Homo sapiens, primed neutrophils, ELISA (FIG. 4). Here is the method:
Neutrophils were cultured at 2×10^6 cells/ml in RPMI1640 medium containing human serum antibiotics and 20 ng/ml TNFα for 10 minutes prior to addition of a range of concentrations of compound 10. Release of MPO was monitored after a 30 minute period by ELISA. Data are mean of duplicate measurements representative of 5 separate experiments.
as §5
For orientation: In an ELISA, binding on a coated surface is turned into a signal by an enzyme label.

In general, GI50 refers to the concentration that inhibits growth by half. The IC50 is the midpoint of a concentration-inhibition curve. High values mean lower potency, low ones higher potency. `COc1cccc(CNc2nc(Cl)nc3c2ncn3C2OC(CO)C(O)C2O)c1O` (stereo not shown) [Compound 10, 2-Chloro-6-(2-hydroxy-3-methoxybenzylamino)purine riboside]: the concentration for 50% growth inhibition (GI50) in experiment [1] and in experiment [3] was above 100 µM each time. The IC50 in the experiment on neutrophils [2] was found to be 0.05 µM; in the experiment with neutrophils [4], 4 µM.
